According to patent US9023789B2, “Amylin analogs and pharmaceutical compositions thereof” (Novo Nordisk A/S, priority 2012, dated 2015):
Numbered stars: 1 amine (or outer) side, 2 acyl side, 3 side chain; on linkers, the order of the positions; unused ones are H or OH. Bridge positions count the residues as written; N and C are the ends. Side chains are listed from the residue outwards. Peptide text beside a SMILES is read from it. * marks the point of attachment. C20 diacid = O=C(O)CCCCCCCCCCCCCCCCCCC(=O)*; γGlu = O=C(O)[C@H](CCC(=O)[*:2])N[*:1]; AEEA = NCCOCCOCC(=O)O

Key:
[1] = ASSAY (III) ThT fibrillation assay for physical stability; type: physicochemical
Procedure, shortened: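 Physical stability scored by ThT fluorescence (444 nm excitation, 485 nm emission) tracked every 20 min during 37 °C incubation with 960 rpm shaking, ThT at 1 μM final. Values are replicate means with SD at chosen times; HPLC against pramlintide standard gives initial and post-assay soluble concentrations.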

[2] = molecular target: T1, human amylin 3(a) receptor (human calcitonin receptor + RAMP-3) in BHK570 cells (Homo sapiens, UniProt O60896+P30988); assay: ASSAY (II)a functional assay, human amylin receptor (CRE luciferase); type: cell-based; settings: for EC50: human amylin receptor functional potency, assay (II), read-out: hAmylin-R funct. EC50
T1 construct: expressed in transfected cells
Procedure, shortened: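 Read-out: CRE-driven luciferase luminescence, single photon counting, after 30 min at room temperature with LucLite. BHK cells expressed calcitonin receptor alone or with RAMP-3 (amylin 3(a)). Cells were stimulated 3 h at 37° C in DMEM, 10% FBS, 10 mM Hepes, pH 7.4.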

Sprague Dawley (SD) rats = assay: ASSAY (I) efficacy testing on appetite (food intake) using an ad libitum fed rat model; type: in vivo; settings: rat
Procedure, shortened: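 Individual food consumption was logged each hour up to 7 h and again at 24 h, occasionally 48 h, with Grubbs-test outliers removed. Each 200–250 g Sprague Dawley rat, free-feeding in its home cage under reversed lighting, received a single ip, po or sc dose of 0.01–3 mg/kg at lights-off, alongside a vehicle group.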

[3] = hCTR funct. EC50 divided by hAmylin-R funct. EC50
[4] = human functional selectivity: hCTR funct. EC50 / hAmylin-R funct. EC50
[5] = hCTR funct. EC50 over hAmylin-R funct. EC50

T1 sequence (O60896 24-148): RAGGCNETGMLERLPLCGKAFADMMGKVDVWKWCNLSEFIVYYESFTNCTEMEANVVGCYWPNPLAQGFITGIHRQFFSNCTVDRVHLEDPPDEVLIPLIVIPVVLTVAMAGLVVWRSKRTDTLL
T1 sequence (P30988 25-474): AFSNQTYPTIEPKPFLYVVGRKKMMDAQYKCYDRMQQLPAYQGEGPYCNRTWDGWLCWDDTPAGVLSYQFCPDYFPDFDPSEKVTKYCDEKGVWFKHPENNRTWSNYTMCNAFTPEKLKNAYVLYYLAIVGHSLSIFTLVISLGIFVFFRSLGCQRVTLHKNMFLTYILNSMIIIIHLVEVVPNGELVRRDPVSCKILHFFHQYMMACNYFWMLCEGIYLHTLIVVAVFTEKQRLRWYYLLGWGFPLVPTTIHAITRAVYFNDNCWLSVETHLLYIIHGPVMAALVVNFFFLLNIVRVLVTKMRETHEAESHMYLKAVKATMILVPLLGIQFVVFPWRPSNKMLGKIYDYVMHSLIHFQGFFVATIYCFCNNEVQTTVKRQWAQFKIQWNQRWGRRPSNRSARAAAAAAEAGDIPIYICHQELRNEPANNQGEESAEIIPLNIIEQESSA

ThT pH 4.0 lag time (h) [1]	Ratio hCT/hAmylin funct. [2, 3]	Ratio hCT/hAmylin funct. [2, 4]	Ratio hCT/hAmylin funct. [2, 5]	EC50 [2]	SMILES	Food intake reduction 0-24 h 30 nmol/kg (%) (Sprague Dawley (SD) rats)	Food intake reduction 24-48 h 30 nmol/kg (%) (Sprague Dawley (SD) rats)	Food intake reduction 0-24 h 3 nmol/kg (%) (Sprague Dawley (SD) rats)	Food intake reduction 24-48 h 3 nmol/kg (%) (Sprague Dawley (SD) rats)
41 h	41.4	41.4	41.4		CC[C@H](C)[C@H](NC(=O)[C@H](C)NC(=O)CNC(=O)[C@H](Cc1ccccc1)NC(=O)[C@H](CC(N)=O)NC(=O)[C@@H]1CCCN1C(=O)[C@H](CO)NC(=O)[C@H](CO)NC(=O)[C@H](Cc1c[nH]cn1)NC(=O)[C@H](CCCNC(=N)N)NC(=O)[C@H](CC(C)C)NC(=O)[C@H](Cc1ccccc1)NC(=O)[C@H](CC(=O)O)NC(=O)[C@H](C)NC(=O)[C@H](CC(C)C)NC(=O)[C@H](CCCNC(=N)N)NC(=O)[C@H](CCC(N)=O)NC(=O)[C@@H](NC(=O)[C@H](C)NC(=O)[C@@H]1CSSC[C@H](NC(=O)[C@@H](N)CCCCNC(=O)CC[C@H](NC(=O)CC[C@H](NC(=O)CCCCCCCCCCCCCCCCCCC(=O)O)C(=O)O)C(=O)O)C(=O)N[C@@H](CC(N)=O)C(=O)N[C@@H]([C@@H](C)O)C(=O)N[C@@H](C)C(=O)N[C@@H]([C@@H](C)O)C(=O)N1)[C@@H](C)O)C(=O)N1CCC[C@H]1C(=O)N[C@@H](CO)C(=O)N[C@@H](CO)C(=O)N[C@H](C(=O)N[C@@H](CC(N)=O)C(=O)N[C@H](C(=O)NCC(=O)N[C@@H](CO)C(=O)N[C@@H](CCCNC(=N)N)C(=O)N[C@H](C(=O)N[C@@H](Cc1ccc(O)cc1)C(N)=O)[C@@H](C)O)C(C)C)[C@@H](C)O [Example 52, N-ε-1-{(S)-4-carboxy-4-[(S)-4-carboxy-4-(19-carboxynonadecanoylamino)butyrylamino]butyryl}-[Asp14,Arg17,Pro21,Pro27,Arg35]-human amylin]	63%	50%	25%	15%
45 h	5.3	5.3	5.3		CC[C@H](C)[C@H](NC(=O)[C@H](C)NC(=O)CNC(=O)[C@H](Cc1ccccc1)NC(=O)[C@H](CC(N)=O)NC(=O)[C@@H]1CCCN1C(=O)[C@H](CO)NC(=O)[C@H](CO)NC(=O)[C@H](Cc1c[nH]cn1)NC(=O)[C@H](CCCNC(=N)N)NC(=O)[C@H](CC(C)C)NC(=O)[C@H](Cc1ccccc1)NC(=O)[C@H](CC(=O)O)NC(=O)[C@H](C)NC(=O)[C@H](CC(C)C)NC(=O)[C@H](CCCNC(=N)N)NC(=O)[C@H](CCC(N)=O)NC(=O)[C@@H](NC(=O)[C@H](C)NC(=O)[C@@H]1CSSC[C@H](NC(=O)[C@@H](N)CCCCNC(=O)CC[C@H](NC(=O)CC[C@H](NC(=O)CCCCCCCCCCCCCCCCCCC(=O)O)C(=O)O)C(=O)O)C(=O)N[C@@H](CC(N)=O)C(=O)N[C@@H]([C@@H](C)O)C(=O)N[C@@H](C)C(=O)N[C@@H]([C@@H](C)O)C(=O)N1)[C@@H](C)O)C(=O)N1CCC[C@H]1C(=O)N[C@@H](CO)C(=O)N[C@@H](CO)C(=O)N[C@H](C(=O)N[C@@H](CC(N)=O)C(=O)N[C@H](C(=O)NCC(=O)N1CCC[C@H]1C(=O)N[C@@H](CCC(=O)O)C(=O)N[C@H](C(=O)N[C@@H](Cc1ccc(O)cc1)C(N)=O)[C@@H](C)O)C(C)C)[C@@H](C)O [Example 122] (H-K([γGlu-γGlu-C20 diacid])CNTATCATQRLADFLRHSSPNFGAIPSSTNVGPETY-NH2; disulfide 2-7 (inferred); N-terminus assumed)			50%	50%

Further lines, the compound ahead of its results:

SMILES	ThT pH 4.0 lag time (h) [1]	Ratio hCT/hAmylin funct. [2, 3]	Ratio hCT/hAmylin funct. [2, 4]	Ratio hCT/hAmylin funct. [2, 5]	EC50 [2]	Food intake reduction 0-24 h 30 nmol/kg (%) (Sprague Dawley (SD) rats)	Food intake reduction 24-48 h 30 nmol/kg (%) (Sprague Dawley (SD) rats)	Food intake reduction 0-24 h 3 nmol/kg (%) (Sprague Dawley (SD) rats)	Food intake reduction 24-48 h 3 nmol/kg (%) (Sprague Dawley (SD) rats)
CC[C@H](C)[C@H](NC(=O)[C@H](C)NC(=O)CNC(=O)[C@H](Cc1ccccc1)NC(=O)[C@H](CC(N)=O)NC(=O)[C@@H]1CCCN1C(=O)[C@H](CO)NC(=O)[C@H](CO)NC(=O)[C@H](Cc1c[nH]cn1)NC(=O)[C@H](CCCNC(=N)N)NC(=O)[C@H](CC(C)C)NC(=O)[C@H](Cc1ccccc1)NC(=O)[C@H](CC(N)=O)NC(=O)[C@H](C)NC(=O)[C@H](CC(C)C)NC(=O)[C@H](CCCNC(=N)N)NC(=O)[C@H](CCC(N)=O)NC(=O)[C@@H](NC(=O)[C@H](C)NC(=O)[C@@H]1CSSC[C@H](NC(=O)[C@H](CCCCN)NC(=O)CC[C@H](NC(=O)CCCCCCCCCCCCCCCCCCC(=O)O)C(=O)O)C(=O)N[C@@H](CC(N)=O)C(=O)N[C@@H]([C@@H](C)O)C(=O)N[C@@H](C)C(=O)N[C@@H]([C@@H](C)O)C(=O)N1)[C@@H](C)O)C(=O)N1CCC[C@H]1C(=O)N[C@@H](CO)C(=O)N[C@@H](CO)C(=O)N[C@H](C(=O)N[C@@H](CC(N)=O)C(=O)N[C@H](C(=O)NCC(=O)N[C@@H](CO)C(=O)N[C@@H](CCCCN)C(=O)N[C@H](C(=O)N[C@@H](Cc1ccc(O)cc1)C(N)=O)[C@@H](C)O)C(C)C)[C@@H](C)O [Example 34]	35 h	8.4	8.4			37%	25%		
CC[C@H](C)[C@H](NC(=O)[C@H](C)NC(=O)CNC(=O)[C@H](Cc1ccccc1)NC(=O)[C@H](CC(N)=O)NC(=O)[C@@H]1CCCN1C(=O)[C@H](CO)NC(=O)[C@H](CO)NC(=O)[C@H](Cc1c[nH]cn1)NC(=O)[C@H](CCCNC(=N)N)NC(=O)[C@H](CC(C)C)NC(=O)[C@H](Cc1ccccc1)NC(=O)[C@H](CCC(=O)O)NC(=O)[C@H](C)NC(=O)[C@H](CC(C)C)NC(=O)[C@H](CCCNC(=N)N)NC(=O)[C@H](CCC(N)=O)NC(=O)[C@@H](NC(=O)[C@H](C)NC(=O)[C@@H]1CSSC[C@H](NC(=O)[C@@H](N)CCCCNC(=O)CC[C@H](NC(=O)CC[C@H](NC(=O)CCCCCCCCCCCCCCCCCCC(=O)O)C(=O)O)C(=O)O)C(=O)N[C@@H](CC(N)=O)C(=O)N[C@@H]([C@@H](C)O)C(=O)N[C@@H](C)C(=O)N[C@@H]([C@@H](C)O)C(=O)N1)[C@@H](C)O)C(=O)N1CCC[C@H]1C(=O)N[C@@H](CO)C(=O)N[C@@H](CO)C(=O)N[C@H](C(=O)N[C@@H](CC(N)=O)C(=O)N[C@H](C(=O)NCC(=O)N1CCC[C@H]1C(=O)N[C@@H](CCC(=O)O)C(=O)N[C@H](C(=O)N[C@@H](Cc1ccc(O)cc1)C(N)=O)[C@@H](C)O)C(C)C)[C@@H](C)O [Example 106] (H-K([γGlu-γGlu-C20 diacid])CNTATCATQRLAEFLRHSSPNFGAIPSSTNVGPETY-NH2; disulfide 2-7; N-terminus assumed)	33 h	10.5	10.5	10.5	0.225 nM	63%	69%		
CC[C@H](C)[C@H](NC(=O)[C@H](C)NC(=O)CNC(=O)[C@H](Cc1ccccc1)NC(=O)[C@H](CC(N)=O)NC(=O)[C@@H]1CCCN1C(=O)[C@H](CO)NC(=O)[C@H](CO)NC(=O)[C@H](Cc1c[nH]cn1)NC(=O)[C@H](CCCNC(=N)N)NC(=O)[C@H](CC(C)C)NC(=O)[C@H](Cc1ccccc1)NC(=O)[C@H](CCCNC(=N)N)NC(=O)[C@H](C)NC(=O)[C@H](CC(C)C)NC(=O)[C@H](CCCNC(=N)N)NC(=O)[C@H](CCC(N)=O)NC(=O)[C@@H](NC(=O)[C@H](C)NC(=O)[C@@H]1CSSC[C@H](NC(=O)[C@@H](N)CCCCNC(=O)COCCOCCNC(=O)CC[C@H](NC(=O)CCCCCCCCCCCCCCCCCCC(=O)O)C(=O)O)C(=O)N[C@@H](CC(N)=O)C(=O)N[C@@H]([C@@H](C)O)C(=O)N[C@@H](C)C(=O)N[C@@H]([C@@H](C)O)C(=O)N1)[C@@H](C)O)C(=O)N1CCC[C@H]1C(=O)N[C@@H](CO)C(=O)N[C@@H](CO)C(=O)N[C@H](C(=O)N1CCC[C@H]1C(=O)N[C@H](C(=O)NCC(=O)N[C@@H](CO)C(=O)N[C@@H](CC(N)=O)C(=O)N[C@H](C(=O)N[C@@H](Cc1ccc(O)cc1)C(N)=O)[C@@H](C)O)C(C)C)[C@@H](C)O [Example 64] (H-K([AEEA-γGlu-C20 diacid])CNTATCATQRLARFLRHSSPNFGAIPSSTPVGSNTY-NH2; disulfide 2-7; N-terminus assumed)	45 h	60.7	60.7	60.7	0.378 nM	4%	3%		
